Data as given in ChEMBL document CHEMBL1201862, “PubChem BioAssay data set” (2004).
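Method: 48-hour compound exposure of cells in 96-well plates, five concentrations, linear interpolation of endpoints. GI50: concentration for 50% inhibition of growth.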 Active and inactive are the calls of the source. Rule as the data show it: active = GI50 up to about 1.1 µM and inactive = higher.

Experiments:
Assay in all cases: inhibition of tumour cell growth, NCI panel, 48 h
IGROV-1 = test system: IGROV-1
Hs-578T = test system: Hs-578T
SK-MEL-5 = test system: SK-MEL-5
HOP-62 = test system: HOP-62
DU-145 = test system: DU-145
A549 = test system: A549
Malme-3M = test system: Malme-3M
BT-549 = test system: BT-549
SF-268 = test system: SF-268
NCI-H23 = test system: NCI-H23
NCI/ADR-RES = test system: NCI/ADR-RES
PC-3 = test system: PC-3
HCC 2998 = test system: HCC 2998
SK-OV-3 = test system: SK-OV-3
CAKI-1 = test system: CAKI-1
UACC-257 = test system: UACC-257
NCI-H226 = test system: NCI-H226
MCF7 = test system: MCF7
A498 = test system: A498
RPMI-8226 = test system: RPMI-8226

SMILES	GI50 (IGROV-1)	GI50 (Hs-578T)	GI50 (SK-MEL-5)	GI50 (HOP-62)	GI50 (DU-145)	GI50 (A549)	GI50 (Malme-3M)	GI50 (BT-549)	GI50 (SF-268)	GI50 (NCI-H23)	GI50 (NCI/ADR-RES)	GI50 (PC-3)	GI50 (HCC 2998)	GI50 (SK-OV-3)	GI50 (CAKI-1)	GI50 (UACC-257)	GI50 (NCI-H226)	GI50 (MCF7)	GI50 (A498)	GI50 (RPMI-8226)
CCCCCCCCC/C=C1/CC(CO)(COC(=O)C2CCCCC2)OC1=O (stereo not given)	> 100 µM (inactive)	62.8 µM (inactive)	43.2 µM (inactive)	63.7 µM (inactive)	> 100 µM (inactive)	> 100 µM (inactive)	43.3 µM (inactive)	> 100 µM (inactive)	> 100 µM (inactive)	> 100 µM (inactive)	> 100 µM (inactive)	> 100 µM (inactive)	> 100 µM (inactive)	> 100 µM (inactive)	> 100 µM (inactive)	> 100 µM (inactive)	> 100 µM (inactive)	> 100 µM (inactive)	> 100 µM (inactive)	
Cc1cc(C)c(C)c(-n2[nH]c(=O)n(C)c2=O)c1C	> 100 µM (inactive)	> 100 µM (inactive)	> 100 µM (inactive)	> 100 µM (inactive)	> 100 µM (inactive)	> 100 µM (inactive)		> 100 µM (inactive)	> 100 µM (inactive)	> 100 µM (inactive)	> 100 µM (inactive)	> 100 µM (inactive)		> 100 µM (inactive)	> 100 µM (inactive)	> 100 µM (inactive)	> 100 µM (inactive)	> 100 µM (inactive)	> 100 µM (inactive)	> 100 µM (inactive)
COC(=O)C1=CSC2(S1)C(C(=O)OC)=CSc1c2ss/c1=N\c1ccccc1 (stereo not given)	2.47 µM (inactive)	2.55 µM (inactive)	2.53 µM (inactive)	2.88 µM (inactive)	2.96 µM (inactive)	2.52 µM (inactive)	0.813 µM (active)	2.74 µM (inactive)	3.02 µM (inactive)	2.47 µM (inactive)	1.69 µM (inactive)	5.08 µM (inactive)	1.72 µM (inactive)	2.72 µM (inactive)	2.98 µM (inactive)	2.43 µM (inactive)		3.79 µM (inactive)	1.64 µM (inactive)	0.497 µM (active)
COC(=O)C(CNC(=O)/C=C/c1ccc(OC(C)=O)c(OC(C)=O)c1)NC(=O)/C=C/c1ccc(OC(C)=O)c(OC(C)=O)c1 (stereo not given)	> 100 µM (inactive)	> 100 µM (inactive)	> 100 µM (inactive)	> 100 µM (inactive)	> 100 µM (inactive)	> 100 µM (inactive)	> 100 µM (inactive)	> 100 µM (inactive)	> 100 µM (inactive)	> 100 µM (inactive)		> 100 µM (inactive)	> 100 µM (inactive)	57.5 µM (inactive)	> 100 µM (inactive)	> 100 µM (inactive)	> 100 µM (inactive)	> 100 µM (inactive)	> 100 µM (inactive)	> 100 µM (inactive)
COc1ccc(/C=C/C(=O)CCN2CCN(CCC(=O)/C=C/c3ccc(OC)cc3)CC2)cc1	11.5 µM (inactive)	20 µM (inactive)	18.1 µM (inactive)	20.6 µM (inactive)	26.2 µM (inactive)	20.9 µM (inactive)	18.7 µM (inactive)	18.6 µM (inactive)	17.4 µM (inactive)	15.6 µM (inactive)	36.4 µM (inactive)	12.9 µM (inactive)	12.2 µM (inactive)	11.8 µM (inactive)	13.5 µM (inactive)	14.8 µM (inactive)	22.3 µM (inactive)	3.56 µM (inactive)	< 0.01 µM (active)	
COc1cc(N(Cc2ccc3nc(OC)c(OC)nc3c2)Cc2ccc3nc(OC)c(OC)nc3c2)cc(OC)c1OC		7.67 µM (inactive)	> 50 µM (inactive)	1.3 µM (inactive)	> 50 µM (inactive)	> 50 µM (inactive)	> 50 µM (inactive)	6.78 µM (inactive)	32.1 µM (inactive)	> 50 µM (inactive)	> 50 µM (inactive)	> 50 µM (inactive)		29.1 µM (inactive)	> 50 µM (inactive)	> 50 µM (inactive)	> 50 µM (inactive)	32.9 µM (inactive)		> 50 µM (inactive)
CC(=O)C12C[C@](C#N)(N3CCCCCC3)C1C=Cc1ccccc12 (stereo not given in full)	> 100 µM (inactive)	> 100 µM (inactive)	> 100 µM (inactive)	> 100 µM (inactive)	> 100 µM (inactive)	> 100 µM (inactive)		> 100 µM (inactive)	> 100 µM (inactive)	> 100 µM (inactive)	> 100 µM (inactive)	> 100 µM (inactive)	> 100 µM (inactive)	> 100 µM (inactive)	> 100 µM (inactive)	> 100 µM (inactive)	> 100 µM (inactive)	> 100 µM (inactive)		> 100 µM (inactive)
CC(=O)O[C@H]1C(=O)[C@@]2(C)[C@H]([C@H](OC(=O)c3ccccc3)[C@]3(O)C[C@H](OC(=O)[C@H](O)[C@@H](NC(=O)OC(C)(C)C)c4ccco4)C(C)=C1C3(C)C)[C@]1(OC(C)=O)CO[C@@H]1C[C@@H]2O	0.00682 µM (active)	< 0.005 µM (active)	< 0.005 µM (active)	0.00804 µM (active)	< 0.005 µM (active)	< 0.005 µM (active)	6.61 µM (inactive)	< 0.005 µM (active)	< 0.005 µM (active)	0.00966 µM (active)	0.0185 µM (active)	< 0.005 µM (active)	< 0.005 µM (active)	< 0.005 µM (active)	0.00802 µM (active)	11.1 µM (inactive)		< 0.005 µM (active)	2.47 µM (inactive)	< 0.005 µM (active)
Clc1ccc(CNc2nc(Cl)c3nc[nH]c3n2)cc1Cl	42.7 µM (inactive)	21 µM (inactive)	16.7 µM (inactive)	27.4 µM (inactive)	19 µM (inactive)	23.1 µM (inactive)	26.4 µM (inactive)	24.2 µM (inactive)	25.4 µM (inactive)	22.4 µM (inactive)	15.8 µM (inactive)	21.6 µM (inactive)	19.8 µM (inactive)	20.6 µM (inactive)	23.2 µM (inactive)	13.5 µM (inactive)	21.9 µM (inactive)	18 µM (inactive)	11.1 µM (inactive)	
N#Cc1c(-c2ccccc2)[nH]c(=O)n(C2OC(CO)C(O)C(O)C2O)c1=O (stereo not given)		> 100 µM (inactive)	> 100 µM (inactive)	> 100 µM (inactive)	> 100 µM (inactive)	> 100 µM (inactive)		> 100 µM (inactive)	> 100 µM (inactive)	> 100 µM (inactive)	> 100 µM (inactive)	> 100 µM (inactive)	> 100 µM (inactive)	> 100 µM (inactive)	> 100 µM (inactive)	> 100 µM (inactive)		> 100 µM (inactive)	> 100 µM (inactive)	> 100 µM (inactive)
O=C(O)CN1CCNCCNCC1	> 100 µM (inactive)	> 100 µM (inactive)	> 100 µM (inactive)	> 100 µM (inactive)	> 100 µM (inactive)	> 100 µM (inactive)		> 100 µM (inactive)			> 100 µM (inactive)	> 100 µM (inactive)		> 100 µM (inactive)	> 100 µM (inactive)	> 100 µM (inactive)	> 100 µM (inactive)	> 100 µM (inactive)	> 100 µM (inactive)	> 100 µM (inactive)
COc1ccc(NC(=S)c2ccc(CN3CCCCC3)s2)cc1	22.8 µM (inactive)	12.6 µM (inactive)	14.3 µM (inactive)	20.6 µM (inactive)	38.2 µM (inactive)	20.3 µM (inactive)	17.5 µM (inactive)	17 µM (inactive)	18 µM (inactive)	12.5 µM (inactive)	23 µM (inactive)	25.6 µM (inactive)	16.6 µM (inactive)	16.4 µM (inactive)	27.9 µM (inactive)	16.6 µM (inactive)		17 µM (inactive)	16.2 µM (inactive)	23.4 µM (inactive)
O=c1[nH]nc(-c2ccccc2)c2[nH]c3c(c12)CCCc1ccccc1-3	12.5 µM (inactive)	17 µM (inactive)	12.4 µM (inactive)	19.3 µM (inactive)	17.6 µM (inactive)	9.46 µM (inactive)	11.8 µM (inactive)	20.7 µM (inactive)	24.9 µM (inactive)	52.2 µM (inactive)	12.4 µM (inactive)	14.9 µM (inactive)	14.8 µM (inactive)	52.2 µM (inactive)	22 µM (inactive)	18.7 µM (inactive)	16.1 µM (inactive)	19.6 µM (inactive)		11.5 µM (inactive)
O=C1O[C@H](COC(=O)c2ccccc2)[C@@H](OC(=O)c2ccccc2)C=C1OC(=O)c1ccccc1	21.5 µM (inactive)	33 µM (inactive)	19 µM (inactive)	20 µM (inactive)	36.6 µM (inactive)			16.4 µM (inactive)	18.3 µM (inactive)	18.1 µM (inactive)	18.9 µM (inactive)	25.4 µM (inactive)	> 100 µM (inactive)	> 100 µM (inactive)	23.8 µM (inactive)	25.7 µM (inactive)	21.5 µM (inactive)	28.8 µM (inactive)	55.7 µM (inactive)	29.6 µM (inactive)
CC(=O)N1C(c2[nH]c3ccccc3c2-c2ccccc2)CCN1c1ccccc1 (stereo not given)	> 10 µM (inactive)	> 10 µM (inactive)	> 10 µM (inactive)	> 10 µM (inactive)	> 10 µM (inactive)	> 10 µM (inactive)	> 10 µM (inactive)	> 10 µM (inactive)	> 10 µM (inactive)	> 10 µM (inactive)	> 10 µM (inactive)	8.97 µM (inactive)	> 10 µM (inactive)	> 10 µM (inactive)	> 10 µM (inactive)	> 10 µM (inactive)	> 10 µM (inactive)	> 10 µM (inactive)		> 10 µM (inactive)
